The subject of one experiment is F. nucleatum 23726. Kind of experiment: MIC against F. nucleatum 23726. The experiment is classed as cell-based, Fusobacterium nucleatum. The following applies: three biological replicates. The protocol: (§1) Compounds were twofold serially diluted (100–0.2 μg/mL) across a 96-well plate in 100 μL of media used for the specific organism (Table S4). For anaerobes, plates were incubated anaerobically at 37 °C for 1 h and then inoculated with approximately 10^5 to 10^6 CFU/well. Plates were incubated at 37 °C for up to 48 h, and MICs were read by visual inspection.

For a further experiment, the system named is E. faecalis FA2–2ΔfabI. Kind of experiment: MIC against E. faecalis FA2-2 fabK+ (ΔfabI, possesses only FabK). Type of experiment: cell-based, Enterococcus faecalis. The settings on record: Enterococcus faecalis, read-out: MIC Ef fabK+, E. faecalis FA2-2 ΔfabI, possesses only FabK. As to the method:
as §1

The next experiment deals with E. faecalis FA2–2. In words: MIC against wild-type E. faecalis FA2-2 (FabI and FabK). The experiment is classed as cell-based, Enterococcus faecalis. The settings on record: Enterococcus faecalis, E. faecalis FA2-2, possesses both FabI and FabK; read-out: MIC Ef wild-type. As to the method:
as §1

Experiment [1] concerns C. difficile infection (CDI). The settings on record: cited from earlier work.

Molecules are shown by their SMILES. Converted amounts (≈) assume the structure as drawn.

One may read the MIC as the smallest concentration in the dilution series that meets the test's criterion for growth inhibition.

With `O=C(NCc1nc(-c2ccc(Br)cc2)c[nH]1)Nc1ncc(Sc2ccccn2)s1` [Compound 296, 1-[4-(4-bromophenyl)-1H-imidazole-2-yl]methyl-3-[5-(pyridin-2-ylthio)thiazol-2-yl]urea], the “MIC Fn 23726” value against F. nucleatum 23726 (F. nucleatum 23726 wild-type) was 100 µg/mL (≈ 205 µM). Further, the MIC with F. nucleatum 23726 (Fusobacterium nucleatum, 23726, F. nucleatum 23726 wild-type, read-out: MIC Fn 23726) was over 100 µg/mL; in the experiment on E. faecalis FA2–2ΔfabI, under 0.1 µg/mL; with E. faecalis FA2–2 it was 100 µg/mL (≈ 205 µM). In addition, the “Efficacy in treating C. difficile infection (CDI) in mice” value in experiment [1] was “efficacious”.

These data come from publication PMC11091888, “Evaluation of Fusobacterium nucleatum Enoyl-ACP Reductase (FabK) as a Narrow-Spectrum Drug Target” (ACS Infectious Diseases, 2024).
